Laboratory results taken from PubChem BioAssay AID1159557 (GlaxoSmithKline (GSK), 2015).
pIC50: −log10 of the molar value. Calls of active or inactive are those of the source. How the calls were made is not given here.

Each compound was assayed on Trypanosoma brucei growth inhibition (assay: trypanosome proliferation inhibitors (AID 1159557);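 further: parasites exposed to compound for 48 h before the resazurin readout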).

Structure (SMILES) | pIC50 | IC50
O=C(NCC1CCCCC1)c1cc(=O)c2ccccc2o1 | 6.00 | 
CC1(Oc2cncc(Cl)c2)CCN(Cc2cc3ccccc3[nH]2)C1 (stereo not drawn) |  | > 40 µM (inactive)
O=C(Nc1ccc(Br)cn1)c1ccc(Cn2cnc([N+](=O)[O-])n2)cc1 | 5.80 | 
Cc1cc2ncn(-c3ccc([N+](=O)[O-])cc3C#N)c2cc1C | 4.70 | 
N#Cc1cccc(CN2CCC(N(Cc3cccnc3)C(=O)c3cc(F)c(F)cc3F)CC2)c1 |  | > 40 µM (inactive)
CC(C)(C)CC(=O)NCCc1csc(-c2ccc(F)cc2)n1 | 6.20 | 
Cc1ccccc1NS(=O)(=O)c1ccc2[nH]cc(C(=O)NC3CCCCC3)c(=O)c2c1 | 6.60 | 
CNc1nc(C)nc(N2CCc3cc(C(=O)NCc4ccc(-c5nccn5C)cc4Cl)ccc32)n1 | 4.89 | 
C[C@@H](Oc1cc(-n2cnc3ccc(CC(O)CO)cc32)sc1C(N)=O)c1ccccc1Cl (stereo partly drawn) | 6.20 | 
Cc1nc(N2CC(C)OC(C)C2)sc1C(=O)Nc1ccc2c(c1)OCO2 (stereo not drawn) | 4.40 | 
COc1ccc(CN2CCCCC2c2nc(-c3cccnc3)no2)cc1 (stereo not drawn) |  | > 40 µM (inactive)
CN(C)c1ncc(-c2cncn2CCOc2ccc(Cl)cc2)cn1 |  | > 40 µM (inactive)
c1ccc2c(CCOc3nccnc3-c3ccncc3)c[nH]c2c1 | 4.49 | 
O=C(NCCc1nc(-c2ccc(F)c(F)c2)n[nH]1)C1CCCCC1 | 6.30 | 
Cn1nc(-c2ccc(NC(=O)Cc3ccccc3Cl)cc2)c2c(N)ncnc21 | 6.40 | 
O=C1CCCCCC1(Cc1cnc[nH]1)c1ccc(Cl)cc1Cl (stereo not drawn) |  | > 40 µM (inactive)
Cc1ccc(Nc2nc(C3CCCN3Cc3ccn[nH]3)cs2)nc1 (stereo not drawn) | 6.10 | 
O=C(Nc1nccs1)c1ccccc1Cn1cc([N+](=O)[O-])cn1 | 6.49 | 
O=C(c1ccccc1)N1CCC(C(=O)N2CCC(Oc3ccccc3Cl)CC2)CC1 | 6.30 | 
Cc1cc(C)nc(N2CCC(N(Cc3cccnc3)C(=O)c3cccc(C#N)c3)CC2)n1 |  | > 40 µM (inactive)
c1cc(-c2ncc(-c3ccn[nH]3)s2)ccn1 | 4.70 | 
O=C1CN(Cc2ccco2)C2CS(=O)(=O)CC2N1c1ccc(Cl)cc1 (stereo not drawn) | 6.49 | 

Structure (SMILES) | pIC50 | IC50
COc1cccc2sc(CN(C)C(=O)C3CNCCN3c3ccc(F)cc3)c(C)c12 (stereo not drawn) | 6.80 | 
COc1cccc(Nc2cc(C)nc(-c3ccccn3)n2)c1 |  | > 40 µM (inactive)
Cc1ccc(CNC2CCN(C[C@@H]3Cn4c(=O)ccc5ccc(=O)n3c54)CC2)cc1F | 5.80 | 
COCCn1c(-c2ccc3c(c2)OCO3)cnc1NCc1ccccc1OC | 4.70 | 
CNc1cncc(C2CCCN2C(=O)Cc2coc3cc(C)ccc23)n1 (stereo not drawn) |  | > 40 µM (inactive)
O=c1oc2ccccc2n1C1CCN(Cc2ccccc2-c2cccnc2)CC1 | 4.40 | 
NS(=O)(=O)c1ccc(CNC(=O)c2ccc([N+](=O)[O-])s2)cc1 | 6.60 | 
NC(=O)c1ccccc1Nc1nc(NC2CCCCC2)nc2[nH]ccc12 | 6.30 | 
Cc1nc2c(-c3cccs3)c(C)nn2c(NCCO)c1C | 6.89 | 
O=C(CCc1ccc(-c2ccccc2)o1)N1CCN(c2ccc(O)cc2)CC1 | 4.60 | 
COc1cccc(CCNC(=O)C(c2cn[nH]c2)N2CCN(c3ccc(Cl)cc3)CC2)c1 (stereo not drawn) | 4.70 | 
COCCn1cnc2cc(NC(=O)C3CCCCC3)cc(C(=O)N3CCc4sccc4C3)c21 | 6.10 | 
CC(C)(C)CC(=O)NCc1noc(COc2ccccc2)n1 | 6.20 | 
N#Cc1cc([N+](=O)[O-])ccc1NC1CCCCCC1 | 5.60 | 
Cc1[nH]nc(Nc2ccnc3[nH]ccc23)c1C | 6.89 | 
O=C(Cn1cnc2cc([N+](=O)[O-])ccc2c1=O)NCCc1ccc(Cl)cc1Cl | 4.89 | 
O=C(Cn1cnc([N+](=O)[O-])n1)Nc1ccc(Cl)cc1C(=O)c1ccccc1 | 4.70 | 
Cc1cc2cc(CNc3ccc4c(c3)OCO4)c(=O)n(CCO)c2cc1C | 4.60 | 
COc1cc(OC)cc(C(NS(=O)(=O)c2ccc(Cl)c(C(F)(F)F)c2)c2nccn2C)c1 (stereo not drawn) | 5.10 | 
CN(C)Cc1ccc(N2CCC(NS(=O)(=O)c3ccc(Cl)cc3)CC2)cc1 | 4.60 | 
Cc1cccc(NS(=O)(=O)c2ccc3c(c2)C(=O)c2cc(S(=O)(=O)Nc4cccc(C)c4C)ccc2-3)c1C | 5.10 | 
COc1ccc(Nc2nc(-c3ccccn3)cc(N3CCCC(O)C3)n2)cc1 (stereo not drawn) | 5.40 | 

Structure (SMILES) | pIC50 | IC50
O=C(CN(Cc1ccccn1)Cc1ccccn1)NC1Cc2ccccc2C1 | 4.70 | 
O=C1COC(c2ccccc2)(c2ccccc2)CN1C1CCN(Cc2ccc(-n3ccnc3)cc2)CC1 | 6.10 | 
Cc1nn(-c2nc(N)nc(-c3ccccn3)n2)c(N)c1-c1ccccc1 | 5.70 | 
Cc1ccc(S(=O)(=O)Nc2ccc(CN3CCN(C(=O)c4cccc(C#N)c4)CC3)cc2)cc1 | 6.80 | 
Cc1[nH]nc2c1C(c1ccc(OCc3ccccc3F)cc1)SCC(=O)N2 (stereo not drawn) | 4.60 | 
O=c1[nH]c(C=Cc2cccc(OCCOc3ccccc3)c2)nc(O)c1[N+](=O)[O-] | 5.00 | 
CN(Cc1nc2c(C(=O)N3CCN(Cc4ccccc4)CC3)cccc2[nH]1)C1CCCc2cccnc21 (stereo not drawn) | 6.20 | 
O=C(CN(Cc1ccccn1)Cc1ccccn1)NCc1ccc2c(c1)OCO2 | 5.20 | 
CCOc1ccc(CN(C)Cc2nc(N)nc(Nc3ccc(C)cc3)n2)cc1 | 5.60 | 
O=C(Cn1cnc2c(-c3ccccc3)csc2c1=O)N1CCCCC1 | 6.10 | 
CN(CCOc1ccc(Cl)cc1)Cc1nc(N)nc(N(C)C)n1 | 4.60 | 
O=C1CSC(c2cccnc2)N1c1ccc(Cl)cc1Cl (stereo not drawn) |  | > 40 µM (inactive)
Cc1cc(=O)n2nc(Oc3ccc(C#N)cc3Cl)sc2n1 | 6.20 | 
COc1ccc(-c2cnc(NC(=O)c3cc(-c4ccccn4)n[nH]3)n2C)cc1 | 6.40 | 
c1ccc2[nH]c(-c3ccc(N4CCCC4)nc3)nc2c1 | 6.10 | 
COc1ccccc1-n1c(SCC(=O)Nc2ccc3c(c2)OCO3)nc2c(c1=O)SCC2 |  | > 40 µM (inactive)
COc1ccc2ncc(=O)n(CCN3CCOC(CNCc4ccc(C(F)(F)F)cc4F)C3)c2n1 (stereo not drawn) | 6.20 | 
Cc1ccc2ccc(C(Nc3ccccn3)c3cccnc3)c(O)c2n1 (stereo not drawn) | 5.30 | 
COc1cnc2ccc(=O)n(CCN3CCC(NC(=O)c4ccc(Cl)cc4)CC3)c2c1 | 7.10 | 
COc1cccc(S(=O)(=O)Nc2ccc3c(c2)CC(N2CCC(NC(=O)C4CC4)CC2)C3)c1 (stereo not drawn) | 6.00 | 
O=C(CSc1ccc(-c2ccccn2)nn1)Nc1ccc(Cl)cc1 | 5.00 | 
Cc1ccccc1NS(=O)(=O)c1ccc2[nH]cc(C(=O)NC3CCCC(C)C3C)c(=O)c2c1 (stereo not drawn) | 6.49 | 

Structure (SMILES) | pIC50 | IC50
Cc1cc(Br)sc1CNCCCNc1cc(=O)c2ccccc2[nH]1 | 7.20 | 
CC(=O)NCCNc1cc(-c2ccnc(Nc3cccc(Cl)c3)n2)ccn1 | 6.70 | 
CC1=NN(C(=O)CCn2cnc([N+](=O)[O-])n2)C(O)(C(F)(F)F)C1 (stereo not drawn) |  | > 40 µM (inactive)
CC(C)CC(=O)NC(c1cccs1)c1ccc2cccnc2c1O (stereo not drawn) | 6.20 | 
CS(=O)(=O)NC1CCC(Nc2ncc(Br)c(Nc3ccccc3C(N)=O)n2)CC1 (stereo not drawn) | 6.80 | 
COc1ccc(-c2cnc(NC(=O)c3ccc(F)cc3)n2C)cc1 | 5.89 | 
COc1cccc(C(=O)[C@H]2C[C@@H]2CN(Cc2cccnc2)Cc2cccnc2)c1 | 4.49 | 
Cc1ccc2nc(N(Cc3cccnc3)C(=O)CCc3ccccc3)sc2c1 | 4.89 | 
CNC(=O)C1Cc2ccccc2N1C(=O)Cc1ccccc1 (stereo not drawn) | 6.20 | 
CN(C)S(=O)(=O)c1ccc(-c2cnc(N)c(-c3nc4ccc(F)cc4[nH]3)c2)cc1 | 6.40 | 
N#Cc1ccc(S(=O)(=O)N2CCC3(CCN(c4ccccc4)C3=O)CC2)cc1 |  | > 40 µM (inactive)
CC(C)Nc1nc(Cl)nc2ccccc12 | 5.30 | 
Cc1cc(NC(=O)C2CCCCC2)n(-c2nc3c(c(=O)[nH]2)CCC3)n1 | 6.89 | 
COc1cnc2ccc(=O)n(CCN3CCC(NC/C=C/c4cc(F)ccc4F)CC3)c2c1 | 6.40 | 
O=C1NCCn2ccc(Nc3nc(NC4CCC(O)CC4)ncc3Cl)c21 (stereo not drawn) | 6.30 | 
O=c1[nH]ccc2ccc(-c3ccncc3)cc12 | 4.49 | 
Cc1cc(C)n(-c2nc(NC(C)C)nc(NC(C)(C)C)n2)n1 | 4.70 | 
O=C(CN1CCC2(O)CCCCC2C1c1ccc2c(c1)OCO2)Nc1ccc(Cl)cc1Cl (stereo not drawn) | 4.89 | 
c1ccc(Nc2nc(-c3ccccn3)cc(N3CCOCC3)n2)cc1 | 4.80 | 
CC(C)(C)c1csc(NC(=O)c2ccc([N+](=O)[O-])s2)n1 | 6.70 | 
CC(c1ccccn1)N(C)Cc1nc2ccccc2n1C(C)C (stereo not drawn) | 4.89 | 
Cc1cc(C#N)c([N+](=O)[O-])cc1Br | 6.10 | 

Structure (SMILES) | pIC50 | IC50
COc1ccc(C(=O)Nc2c(C)nn(COc3cccc(C(F)(F)F)c3)c2C)cc1 | 6.10 | 
COc1ccc(C2=NCC(CSc3nnc(-c4ccc5c(c4)OCO5)o3)S2)cc1 (stereo not drawn) | 5.00 | 
CCCN(Cc1ccc(OC)c(OC)c1)Cc1cc(=O)c2c(C)cc(C)cc2[nH]1 | 4.60 | 
COc1ccc2ncc(Cl)c(CCN3CC[C@@H](NCc4cc5c(cn4)OCS5)[C@H](O)C3)c2n1 | 6.49 | 
CNS(=O)(=O)c1ccccc1Nc1nc(Nc2cc(C)nn2C)ncc1Cl | 7.20 | 
COc1ccc(C(=O)Nc2ccc(NC(=O)CO)cc2)cc1 | 6.60 | 
CN(C)CCOc1ccc(N2CCN(S(=O)(=O)c3ccc(Cl)cc3)CC2)cc1 | 4.70 | 
Cc1nc2c(-c3nc(-c4ccc(N)cc4)n[nH]3)cccn2c1C | 4.89 | 
N#Cc1cccc(CN2CCC(c3nc(-c4ccc(C(F)(F)F)nc4)no3)CC2)c1 |  | > 40 µM (inactive)
CC(C)C[C@H](NC(=O)c1ccc(-c2ccccc2)o1)C(=O)NC1(C#N)CC1 | 7.00 | 
COc1ccc(OC)c(S(=O)(=O)N(Cc2c(F)cccc2F)[C@@H]2CCN(C#N)C2)c1 | 6.20 | 
CCOC(=O)c1cn[nH]c1S(=O)(=O)N1CCC1c1ccccc1 (stereo not drawn) | 6.20 | 
O=C(NC1C(=O)N(c2ccccc2)C1c1cccnc1)c1ccc(Cl)s1 (stereo not drawn) |  | > 40 µM (inactive)
O=C(NC(c1ccc(Cl)cc1)c1cnccn1)C1CCN(C(=O)Nc2cccc(C(F)(F)F)c2)CC1 (stereo not drawn) | 4.89 | 
CC(CCc1ccccc1)NC(=O)CN(Cc1ccccn1)Cc1ccccn1 (stereo not drawn) | 5.00 | 
O=C(NCc1ccncc1)c1ccccc1N1CCCN(C(=O)Cc2ccc(F)c(F)c2)CC1 | 5.20 | 
C=CCOCC1Cn2nc([N+](=O)[O-])nc2O1 (stereo not drawn) |  | > 40 µM (inactive)
COc1cnc2ccc(=O)n(CCN3CCC(NC(=O)Cc4ccc(Cl)c(Cl)c4)CC3)c2c1 | 6.60 | 
O=C(c1ccc(O)c(Cl)c1)N1CCN(c2cnccn2)CC1 |  | > 40 µM (inactive)
Cc1ccccc1OCC(=O)N1CCCN(c2cccnn2)CC1 |  | > 40 µM (inactive)
